From US11981658B2, “Substituted aminopyridine compounds as EGFR inhibitors” (YUHAN CORPORATION, priority 2021, dated 2024)
Read-outs that look alike come from different tables or passages of the source.

Key:
EGFR L858R/T790M/C797S = EGFR L858R/T790M/C797S (Homo sapiens, UniProt P00533, C797S/L858R/T790M); test: Biochemical EGFR kinase inhibition assay (Lance Ultra TR-FRET), triple mutant L858R/T790M/C797S
Summary of the method: (§1)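 Step 1: compound in kinase buffer, 0.003–10 μM. Step 2: kinase reaction 1 h at room temperature. Step 4: TR-FRET read at 615/665 nm; IC50 calculated.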

EGFR wildtype (WT) = EGFR wildtype (WT) (Homo sapiens, UniProt P00533); test: Biochemical EGFR kinase inhibition assay (Lance Ultra TR-FRET), wildtype
Chain of EGFR wildtype (WT) (P00533 25-1210): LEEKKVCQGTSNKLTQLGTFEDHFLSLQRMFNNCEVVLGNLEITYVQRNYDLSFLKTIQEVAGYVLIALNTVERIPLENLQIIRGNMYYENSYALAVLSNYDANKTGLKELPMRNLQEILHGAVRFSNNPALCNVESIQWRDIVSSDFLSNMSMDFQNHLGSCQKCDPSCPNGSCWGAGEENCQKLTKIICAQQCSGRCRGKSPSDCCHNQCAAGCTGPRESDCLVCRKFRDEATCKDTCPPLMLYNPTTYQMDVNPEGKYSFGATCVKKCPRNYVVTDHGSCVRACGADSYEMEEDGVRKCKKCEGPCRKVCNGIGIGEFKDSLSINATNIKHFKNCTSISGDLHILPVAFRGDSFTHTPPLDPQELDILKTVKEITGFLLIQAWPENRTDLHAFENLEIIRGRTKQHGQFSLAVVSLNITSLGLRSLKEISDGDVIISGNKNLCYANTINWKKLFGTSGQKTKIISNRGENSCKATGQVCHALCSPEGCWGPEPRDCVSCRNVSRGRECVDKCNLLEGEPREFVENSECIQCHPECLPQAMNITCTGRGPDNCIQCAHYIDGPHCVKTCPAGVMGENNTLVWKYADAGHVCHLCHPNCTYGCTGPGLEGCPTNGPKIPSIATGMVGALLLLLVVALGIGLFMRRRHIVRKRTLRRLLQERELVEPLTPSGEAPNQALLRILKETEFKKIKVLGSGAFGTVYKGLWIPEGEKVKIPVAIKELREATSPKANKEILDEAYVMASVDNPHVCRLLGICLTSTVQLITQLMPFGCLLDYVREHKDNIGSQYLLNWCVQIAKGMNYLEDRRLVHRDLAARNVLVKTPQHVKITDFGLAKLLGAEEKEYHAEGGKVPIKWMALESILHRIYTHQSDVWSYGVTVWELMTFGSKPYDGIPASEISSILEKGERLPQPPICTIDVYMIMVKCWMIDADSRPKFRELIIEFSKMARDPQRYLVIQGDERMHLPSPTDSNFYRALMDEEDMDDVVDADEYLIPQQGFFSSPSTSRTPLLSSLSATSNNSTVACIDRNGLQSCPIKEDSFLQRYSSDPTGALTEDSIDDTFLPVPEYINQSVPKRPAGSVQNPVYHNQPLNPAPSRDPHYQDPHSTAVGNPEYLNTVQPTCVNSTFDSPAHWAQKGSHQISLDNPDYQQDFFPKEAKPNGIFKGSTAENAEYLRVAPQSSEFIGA
Summary of the method: as §1

EGFR Del19/T790M/C797S = EGFR Del19/T790M/C797S (Homo sapiens, UniProt P00533, C797S/DEL746-750/T790M); test: Biochemical EGFR kinase inhibition assay (Lance Ultra TR-FRET), triple mutant del19/T790M/C797S
Summary of the method: as §1

EGFR Del19/C797S = EGFR Del19/C797S (Homo sapiens, UniProt P00533, C797S/DEL746-750); test: Biochemical EGFR kinase inhibition assay (Lance Ultra TR-FRET), double mutant del19/C797S
Chain of EGFR Del19/C797S (P00533 with tags, fused parts or gaps DEL746-750/C797S): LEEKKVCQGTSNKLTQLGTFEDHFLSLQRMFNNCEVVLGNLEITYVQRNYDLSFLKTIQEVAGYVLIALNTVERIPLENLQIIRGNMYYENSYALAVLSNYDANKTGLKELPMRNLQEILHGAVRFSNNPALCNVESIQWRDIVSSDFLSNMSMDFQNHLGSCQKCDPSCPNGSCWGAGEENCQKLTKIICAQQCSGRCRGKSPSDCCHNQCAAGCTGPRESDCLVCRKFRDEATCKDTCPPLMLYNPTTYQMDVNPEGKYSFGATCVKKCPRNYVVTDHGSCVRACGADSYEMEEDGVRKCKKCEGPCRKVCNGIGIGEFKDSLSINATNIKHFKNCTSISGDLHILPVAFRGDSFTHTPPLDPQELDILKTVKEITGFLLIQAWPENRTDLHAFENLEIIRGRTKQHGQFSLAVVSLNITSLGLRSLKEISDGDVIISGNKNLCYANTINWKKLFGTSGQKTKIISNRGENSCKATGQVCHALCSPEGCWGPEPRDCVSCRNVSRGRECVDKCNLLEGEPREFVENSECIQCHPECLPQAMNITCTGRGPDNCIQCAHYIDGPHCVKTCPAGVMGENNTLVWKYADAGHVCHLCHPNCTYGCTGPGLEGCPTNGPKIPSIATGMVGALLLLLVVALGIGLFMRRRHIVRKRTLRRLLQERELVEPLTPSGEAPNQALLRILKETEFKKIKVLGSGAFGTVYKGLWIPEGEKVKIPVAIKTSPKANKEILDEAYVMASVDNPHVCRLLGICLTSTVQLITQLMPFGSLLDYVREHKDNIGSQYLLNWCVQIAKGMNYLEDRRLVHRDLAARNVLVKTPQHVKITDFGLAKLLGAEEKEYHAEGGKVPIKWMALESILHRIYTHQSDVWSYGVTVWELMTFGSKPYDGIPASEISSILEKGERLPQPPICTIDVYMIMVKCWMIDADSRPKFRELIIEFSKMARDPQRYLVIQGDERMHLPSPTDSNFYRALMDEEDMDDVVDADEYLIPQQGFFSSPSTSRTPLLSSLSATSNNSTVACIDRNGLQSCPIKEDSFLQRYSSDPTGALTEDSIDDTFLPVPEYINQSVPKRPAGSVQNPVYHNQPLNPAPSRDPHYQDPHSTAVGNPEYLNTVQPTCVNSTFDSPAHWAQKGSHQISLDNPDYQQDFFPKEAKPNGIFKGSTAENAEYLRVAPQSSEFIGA
Summary of the method: as §1

EGFR L858R/C797S = EGFR L858R/C797S (Homo sapiens, UniProt P00533, C797S/L858R); test: Biochemical EGFR kinase inhibition assay (Lance Ultra TR-FRET), double mutant L858R/C797S
Chain of EGFR L858R/C797S (P00533 25-1210 C797S/L858R): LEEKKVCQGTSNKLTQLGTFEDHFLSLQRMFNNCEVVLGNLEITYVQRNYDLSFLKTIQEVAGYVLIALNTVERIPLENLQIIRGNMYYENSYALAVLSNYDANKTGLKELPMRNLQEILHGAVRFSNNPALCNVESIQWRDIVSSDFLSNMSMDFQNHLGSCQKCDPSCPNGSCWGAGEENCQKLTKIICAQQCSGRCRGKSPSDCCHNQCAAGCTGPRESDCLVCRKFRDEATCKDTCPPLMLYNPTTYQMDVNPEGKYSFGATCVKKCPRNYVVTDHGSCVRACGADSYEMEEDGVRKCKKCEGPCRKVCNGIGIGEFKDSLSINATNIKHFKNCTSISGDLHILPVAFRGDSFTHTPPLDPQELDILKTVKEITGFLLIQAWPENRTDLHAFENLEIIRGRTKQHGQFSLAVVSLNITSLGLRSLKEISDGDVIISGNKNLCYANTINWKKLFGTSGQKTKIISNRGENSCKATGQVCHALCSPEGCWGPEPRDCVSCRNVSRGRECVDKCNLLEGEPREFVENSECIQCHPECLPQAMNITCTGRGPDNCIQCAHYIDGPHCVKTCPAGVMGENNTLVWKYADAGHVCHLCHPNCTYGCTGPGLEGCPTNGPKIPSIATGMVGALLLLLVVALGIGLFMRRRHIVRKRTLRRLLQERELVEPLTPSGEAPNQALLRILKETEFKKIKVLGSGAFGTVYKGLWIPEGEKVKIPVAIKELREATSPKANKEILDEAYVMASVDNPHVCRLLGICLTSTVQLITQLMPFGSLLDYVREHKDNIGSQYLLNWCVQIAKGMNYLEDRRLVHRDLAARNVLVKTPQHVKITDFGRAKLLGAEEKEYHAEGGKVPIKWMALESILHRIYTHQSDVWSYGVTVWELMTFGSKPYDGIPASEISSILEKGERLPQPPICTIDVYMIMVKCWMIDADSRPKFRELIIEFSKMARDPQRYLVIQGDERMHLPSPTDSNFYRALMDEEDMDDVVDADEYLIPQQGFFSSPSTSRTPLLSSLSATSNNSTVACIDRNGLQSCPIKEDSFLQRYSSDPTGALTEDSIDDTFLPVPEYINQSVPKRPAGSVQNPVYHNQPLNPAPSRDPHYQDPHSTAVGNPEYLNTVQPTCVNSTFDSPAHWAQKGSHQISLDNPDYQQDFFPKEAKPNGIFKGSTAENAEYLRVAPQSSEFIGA
Summary of the method: as §1

[1] = IC50 L858R/T790M/C797S (nM), 100 μM ATP
[2] = IC50 Del19/T790M/C797S (nM), 100 μM ATP
[3] = IC50 Del19/C797S (nM), 100 μM ATP
[4] = IC50 L858R/C797S (nM), 100 μM ATP
[5] = Km ATP, read-out: IC50 L858R/T790M/C797S (nM) Km ATP
[6] = Km ATP, read-out: IC50 WT (nM) Km ATP
[7] = Km ATP, read-out: IC50 Del19/T790M/C797S (nM) Km ATP
[8] = Km ATP, read-out: IC50 Del19/C797S (nM) Km ATP
[9] = Km ATP, read-out: IC50 L858R/C797S (nM) Km ATP
[10] = ATP at Km, read-out: IC50 L858R/T790M/C797S (nM), Km ATP
[11] = ATP at Km, read-out: IC50 WT (nM), Km ATP
[12] = ATP at Km, read-out: IC50 Del19/T790M/C797S (nM), Km ATP
[13] = ATP at Km, read-out: IC50 Del19/C797S (nM), Km ATP
[14] = ATP at Km, read-out: IC50 L858R/C797S (nM), Km ATP

Chain of EGFR L858R/T790M/C797S (P00533 25-1210 T790M/C797S/L858R): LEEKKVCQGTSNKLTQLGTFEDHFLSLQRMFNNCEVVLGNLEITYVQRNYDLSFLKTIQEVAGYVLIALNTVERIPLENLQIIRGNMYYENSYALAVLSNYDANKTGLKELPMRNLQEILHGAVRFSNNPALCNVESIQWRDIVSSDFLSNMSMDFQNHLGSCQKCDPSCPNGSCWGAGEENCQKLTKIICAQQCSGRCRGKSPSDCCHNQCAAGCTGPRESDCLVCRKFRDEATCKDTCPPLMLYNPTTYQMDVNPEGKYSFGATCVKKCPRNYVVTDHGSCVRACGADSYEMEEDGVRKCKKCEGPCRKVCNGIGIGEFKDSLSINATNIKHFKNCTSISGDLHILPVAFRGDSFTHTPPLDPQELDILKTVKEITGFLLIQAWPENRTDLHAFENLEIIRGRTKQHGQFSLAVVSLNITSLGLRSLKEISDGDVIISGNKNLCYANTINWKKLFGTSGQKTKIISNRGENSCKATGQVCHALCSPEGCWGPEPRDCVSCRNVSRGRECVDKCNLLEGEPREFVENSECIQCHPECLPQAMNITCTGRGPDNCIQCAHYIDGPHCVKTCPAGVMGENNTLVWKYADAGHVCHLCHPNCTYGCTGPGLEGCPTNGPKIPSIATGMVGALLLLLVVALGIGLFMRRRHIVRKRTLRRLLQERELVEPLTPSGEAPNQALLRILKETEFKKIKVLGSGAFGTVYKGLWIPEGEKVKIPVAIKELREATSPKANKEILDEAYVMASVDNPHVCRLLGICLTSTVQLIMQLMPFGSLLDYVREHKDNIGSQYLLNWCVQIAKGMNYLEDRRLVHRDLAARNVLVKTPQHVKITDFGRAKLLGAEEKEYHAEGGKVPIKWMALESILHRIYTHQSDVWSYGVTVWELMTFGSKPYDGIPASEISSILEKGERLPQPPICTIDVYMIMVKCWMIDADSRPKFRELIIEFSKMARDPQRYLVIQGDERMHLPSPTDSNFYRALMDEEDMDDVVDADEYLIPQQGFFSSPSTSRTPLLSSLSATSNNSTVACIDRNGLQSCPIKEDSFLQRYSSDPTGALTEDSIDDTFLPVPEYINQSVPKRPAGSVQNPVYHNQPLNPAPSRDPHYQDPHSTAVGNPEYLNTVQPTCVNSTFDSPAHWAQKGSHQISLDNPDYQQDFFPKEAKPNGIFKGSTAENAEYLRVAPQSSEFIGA

| SMILES | IC50 (EGFR L858R/T790M/C797S; [1]) | IC50 (EGFR wildtype (WT); IC50 WT (nM), 100 μM ATP) | IC50 (EGFR Del19/T790M/C797S; [2]) | IC50 (EGFR Del19/C797S; [3]) | IC50 (EGFR L858R/C797S; [4]) | IC50 (EGFR L858R/T790M/C797S; [5]) | IC50 (EGFR wildtype (WT); [6]) | IC50 (EGFR Del19/T790M/C797S; [7]) | IC50 (EGFR Del19/C797S; [8]) | IC50 (EGFR L858R/C797S; [9]) | IC50 (EGFR L858R/T790M/C797S; [10]) | IC50 (EGFR wildtype (WT); [11]) | IC50 (EGFR Del19/T790M/C797S; [12]) | IC50 (EGFR Del19/C797S; [13]) | IC50 (EGFR L858R/C797S; [14]) |
| --- | --- | --- | --- | --- | --- | --- | --- | --- | --- | --- | --- | --- | --- | --- | --- |
| CC(C)(C#Cc1cnc(Nc2ccnc(-c3cnn(S(=O)(=O)C4CC4)c3)n2)cc1N[C@H]1CC[C@@H](O)CC1)N1CCOCC1 [Example 230, (1s,4s)-4-((2-((2-(1-(Cyclopropylsulfonyl)-1H-pyrazol-4-yl)pyrimidin-4-yl)amino)-5-(3-methyl-3-morpholinobut-1-yn-1-yl)pyridin-4-yl)amino)cyclohexan-1-ol] | 18.2 nM | > 10000 nM | 5.9 nM | 1720 nM | 813 nM | – | – | – | – | – | – | – | – | – | – |
| CC1(CO)CCN(c2cc(Nc3ccnc(-c4cnn(S(=O)(=O)C5CC5)c4)n3)ncc2C#Cc2cnn(CC3CCCOC3)c2)CC1 (stereo not drawn) [Example 241, (1-(2-((2-(1-(Cyclopropylsulfonyl)-1H-pyrazol-4-yl)pyrimidin-4-yl)amino)-5-((1-((tetrahydro-2H-pyran-3-yl)methyl)-1H-pyrazol-4-yl)ethynyl)pyridin-4-yl)-4-methylpiperidin-4-yl)methanol] | 3.9 nM | 4180 nM | 2.5 nM | 1.7 nM | 17.5 nM | – | – | – | – | – | 0.8 nM | 9.1 nM | 2.1 nM | 1.2 nM | 2.3 nM |
| CC1(CO)CCN(c2cc(Nc3ccnc(-c4cnn(S(=O)(=O)C5CC5)c4)n3)ncc2C#Cc2cnn(CC3COCCO3)c2)CC1 (stereo not drawn) [Example 242, (1-(5-((1-((1,4-Dioxan-2-yl)methyl)-1H-pyrazol-4-yl)ethynyl)-2-((2-(1-(cyclopropylsulfonyl)-1H-pyrazol-4-yl)pyrimidin-4-yl)amino)pyridin-4-yl)-4-methylpiperidin-4-yl)methanol] | 1.6 nM | 2610 nM | 1 nM | 0.6 nM | 13.8 nM | – | – | – | – | – | 0.4 nM | 4.6 nM | 0.8 nM | 0.7 nM | 1 nM |
| CC1(CO)CCN(c2cc(Nc3ccnc(-c4cnn(S(=O)(=O)C5CC5)c4)n3)ncc2C#Cc2cnn(CC3CCOC3)c2)CC1 (stereo not drawn) [Example 243, (1-(2-((2-(1-(Cyclopropylsulfonyl)-1H-pyrazol-4-yl)pyrimidin-4-yl)amino)-5-((1-((tetrahydrofuran-3-yl)methyl)-1H-pyrazol-4-yl)ethynyl)pyridin-4-yl)-4-methylpiperidin-4-yl)methanol] | 1.8 nM | 2170 nM | 1.4 nM | 0.7 nM | 14.7 nM | – | – | – | – | – | 0.4 nM | 4.7 nM | 0.9 nM | 0.8 nM | 0.9 nM |
| CC1(CO)CCN(c2cc(Nc3ccnc(-c4cnn(S(=O)(=O)C5CC5)c4)n3)ncc2C#Cc2cnn(C3COC3)c2)CC1 [Example 245, (1-(2-((2-(1-(Cyclopropylsulfonyl)-1H-pyrazol-4-yl)pyrimidin-4-yl)amino)-5-((1-(oxetan-3-yl)-1H-pyrazol-4-yl)ethynyl)pyridin-4-yl)-4-methylpiperidin-4-yl)methanol] | 1.3 nM | 474 nM | 1.4 nM | 0.5 nM | 2.8 nM | – | – | – | – | – | 0.5 nM | 6.7 nM | 0.8 nM | 0.6 nM | 1.1 nM |
| CC1(CO)CCN(c2cc(Nc3ccnc(-c4cnn(S(=O)(=O)C5CC5)c4)n3)ncc2C#C[Si](C)(C)C)CC1 [Example 246, (1-(2-((2-(1-(Cyclopropylsulfonyl)-1H-pyrazol-4-yl)pyrimidin-4-yl)amino)-5-((trimethylsilyl)ethynyl)pyridin-4-yl)-4-methylpiperidin-4-yl)methanol] | 15.4 nM | > 10000 nM | 6.4 nM | 54.6 nM | 957 nM | – | – | – | – | – | 3.8 nM | 258 nM | 7.4 nM | 34 nM | 105 nM |
| C#Cc1cnc(Nc2ccnc(-c3cnn(S(=O)(=O)C4CC4)c3)n2)cc1N1CCC(C)(CO)CC1 [Example 247, (1-(2-((2-(1-(Cyclopropylsulfonyl)-1H-pyrazol-4-yl)pyrimidin-4-yl)amino)-5-ethynylpyridin-4-yl)-4-methylpiperidin-4-yl)methanol] | 0.5 nM | 8670 nM | 0.1 nM | 1.7 nM | 42.3 nM | – | – | – | – | – | 0.1 nM | 18.7 nM | 0.1 nM | 1.3 nM | 8.1 nM |
| CC1(CO)CCN(c2cc(Nc3ccnc(-c4cnn(S(=O)(=O)C5CC5)c4)n3)ncc2C#Cc2cn(CC(F)F)c3ccncc23)CC1 [Example 249, (1-(2-((2-(1-(Cyclopropylsulfonyl)-1H-pyrazol-4-yl)pyrimidin-4-yl)amino)-5-((1-(2,2-difluoroethyl)-1H-pyrrolo[3,2-c]pyridin-3-yl)ethynyl)pyridin-4-yl)-4-methylpiperidin-4-yl)methanol] | 1.9 nM | > 10000 nM | 2.6 nM | 7.5 nM | 29.7 nM | – | – | – | – | – | 1.1 nM | 23.9 nM | 3.1 nM | 6.9 nM | 4.7 nM |

Other lines, results leading:

| IC50 (EGFR L858R/T790M/C797S; [1]) | IC50 (EGFR wildtype (WT); IC50 WT (nM), 100 μM ATP) | IC50 (EGFR Del19/T790M/C797S; [2]) | IC50 (EGFR Del19/C797S; [3]) | IC50 (EGFR L858R/C797S; [4]) | IC50 (EGFR L858R/T790M/C797S; [5]) | IC50 (EGFR wildtype (WT); [6]) | IC50 (EGFR Del19/T790M/C797S; [7]) | IC50 (EGFR Del19/C797S; [8]) | IC50 (EGFR L858R/C797S; [9]) | IC50 (EGFR L858R/T790M/C797S; [10]) | IC50 (EGFR wildtype (WT); [11]) | IC50 (EGFR Del19/T790M/C797S; [12]) | IC50 (EGFR Del19/C797S; [13]) | IC50 (EGFR L858R/C797S; [14]) | SMILES |
| --- | --- | --- | --- | --- | --- | --- | --- | --- | --- | --- | --- | --- | --- | --- | --- |
| 18.3 nM | > 10000 nM | 4.6 nM | 94.7 nM | 294 nM | – | – | – | – | – | – | – | – | – | – | O=S(=O)(C1CC1)n1cc(-c2nccc(Nc3cc(N4CCCC(O)C4)c(C#Cc4ccc(N5CCOCC5)nc4)cn3)n2)cn1 (stereo not drawn) [Example 227, 1-(2-((2-(1-(Cyclopropylsulfonyl)-1H-pyrazol-4-yl)pyrimidin-4-yl)amino)-5-((6-morpholinopyridin-3-yl)ethynyl)pyridin-4-yl)piperidin-3-ol] |
| 21.8 nM | > 10000 nM | 6.2 nM | 274 nM | 494 nM | – | – | – | – | – | – | – | – | – | – | O=S(=O)(C1CC1)n1cc(-c2nccc(Nc3cc(N4CCC[C@H](O)C4)c(C#Cc4ccsc4)cn3)n2)cn1 [Example 228, (S)-1-(2-((2-(1-(Cyclopropylsulfonyl)-1H-pyrazol-4-yl)pyrimidin-4-yl)amino)-5-(thiophen-3-ylethynyl)pyridin-4-yl)piperidin-3-ol] |
| 26.9 nM | > 10000 nM | 8.9 nM | 175 nM | 368 nM | – | – | – | – | – | – | – | – | – | – | CC1(C)CN(c2cc(Nc3ccnc(-c4cnn(S(=O)(=O)C5CC5)c4)n3)ncc2C#Cc2ccsc2)CCC1O (stereo not drawn) [Example 229, 1-(2-((2-(1-(Cyclopropylsulfonyl)-1H-pyrazol-4-yl)pyrimidin-4-yl)amino)-5-(thiophen-3-ylethynyl)pyridin-4-yl)-3,3-dimethylpiperidin-4-ol] |
| 1.5 nM | 968 nM | 1.6 nM | 3 nM | 4.6 nM | 0.9 nM | 6.1 nM | 1.7 nM | 1.3 nM | 1.1 nM | – | – | – | – | – | CC1(CO)CCN(c2cc(Nc3ccnc(-c4cnn(S(=O)(=O)C5CC5)c4)n3)ncc2C#Cc2cnn(CC3CCOCC3)c2)CC1 [Example 231, (1-(2-((2-(1-(Cyclopropylsulfonyl)-1H-pyrazol-4-yl)pyrimidin-4-yl)amino)-5-((1-((tetrahydro-2H-pyran-4-yl)methyl)-1H-pyrazol-4-yl)ethynyl)pyridin-4-yl)-4-methylpiperidin-4-yl)methanol] |
| 1.3 nM | 719 nM | 1.3 nM | 1.1 nM | 5.9 nM | 0.5 nM | 0.9 nM | 0.8 nM | 0.4 nM | 0.2 nM | – | – | – | – | – | CC1(CO)CCN(c2cc(Nc3ccnc(-c4cnn(S(=O)(=O)C5CC5)c4)n3)ncc2C#Cc2cnn(CCN3CCOCC3)c2)CC1 [Example 232, (1-(2-((2-(1-(Cyclopropylsulfonyl)-1H-pyrazol-4-yl)pyrimidin-4-yl)amino)-5-((1-(2-morpholinoethyl)-1H-pyrazol-4-yl)ethynyl)pyridin-4-yl)-4-methylpiperidin-4-yl)methanol] |
| 1.5 nM | 418 nM | 1.3 nM | 0.5 nM | 3.1 nM | – | – | – | – | – | 0.5 nM | 6 nM | 0.8 nM | 0.6 nM | 1 nM | CC1(CO)CCN(c2cc(Nc3ccnc(-c4cnn(S(=O)(=O)C5CC5)c4)n3)ncc2C#Cc2cnn(C3CCOC3)c2)CC1 (stereo not drawn) [Example 244, (1-(2-((2-(1-(Cyclopropylsulfonyl)-1H-pyrazol-4-yl)pyrimidin-4-yl)amino)-5-((1-(tetrahydrofuran-3-yl)-1H-pyrazol-4-yl)ethynyl)pyridin-4-yl)-4-methylpiperidin-4-yl)methanol] |
